Where a name gives a salt, the structure may show the parent alone.
Columns and labels:
[1] = test system: mechanical allodynia after chronic constriction injury (CCI) to the sciatic nerve; assay: Mechanical allodynia by response to von Frey fibers, rat chronic constriction injury (CCI) model; assay type: in vivo, male Sprague-Dawley rats; conditions: 2 hr post dosing
From the text: Chronic Constriction Injury: Heat and cold allodynia responses as well as mechanical allodynia sensations can be evaluated as described below in rats having a chronic constriction injury (CCI). A unilateral mononeuropathy is produced in rats using the chronic constriction injury model described in Bennett et al., Pain (1988) 33:87-107. CCI is produced in anesthetized rats as follows. The lateral aspect of each rat's hind limb is shaved and scrubbed with Nolvasan. Using aseptic techniques, an incision is made on the lateral aspect of the hind limb at the mid-thigh level. The biceps femoris is bluntly dissected to expose the sciatic nerve. On the right hind limb of each rat, four loosely tied ligatures (for example, Chromic gut 4.0; Ethicon, Johnson and Johnson, Somerville, N.J.) are made around the sciatic nerve approximately 1-2 mm apart. On the left side of each rat, an identical dissection is performed except that the sciatic nerve is not ligated (sham). The muscle is closed with a continuous suture pattern with, e.g., 4-0 Vicryl (Johnson and Johnson, Somerville, N.J.) and the overlying skin is closed with wound clips. The rats are ear-tagged for identification purposes and returned to animal housing.
To induce allodynia, male Sprague-Dawley rats underwent chronic constriction injury (CCI) to the sciatic nerve as described by Bennett and Xie, Pain 1988; 33(1):87-107. The plantar surface of the hind paws was stimulated with von Frey filaments (Stoelting) to induce a withdrawal response by blinded personnel. The bending force of fiber required to induce a 50% withdrawal response was calculated following CCI surgery (pre-dosing baseline). N=5-6 allodynic rats received a single intraperitoneal administration of test compound or vehicle. Two hours post-dosing, 50% paw withdrawal threshold was determined again by blinded testers using von Frey filaments. The change in 50% withdrawal threshold relative to pre-dosing baseline is reported in Table 2 for various substituted pyrazolo[1,5-a]pyridine compounds of the invention.

[2] = biological target: phosphodiesterase (PDE) enzyme derived from bovine brain; assay: Inhibition of PDE (PDELight kit, cAMP substrate); assay type: biochemical; conditions: PDE from brain extract, cAMP as substrate
Protocol: In a 96-well plate, phosphodiesterase (PDE) enzyme (0.5-1 mU/well) derived from bovine brain (Sigma) was combined with 5 uM cAMP substrate (Sigma). Test compounds (0-200 uM) or vehicle (0.5% DMSO) were added to the enzyme/substrate and incubated for 1 hour. Using a PDELight® kit (Cambrex), the amount of AMP produced in the reaction from the hydrolysis of cAMP was quantified using PDELight AMP Detection Reagent which converts the AMP directly to ATP. The assay uses luciferase, which catalyses the formation of light from the newly formed ATP and luciferin. The luminescence was read on a Victor Light 1420 luminometer. IC50 calculations were plotted using a nonlinear regression curve fit.

For `CC(C)c1nn2ccccc2c1C=O` [Compound 1073, 2-isopropylpyrazolo[1,5-a]pyridine-3-carbaldehyde], the “Mechanical Allodynia ΔWT (change from pre-dosing 50% withdrawal threshold)” value ([1]; 10 mg/kg IP) was 0 grams.

`CC(C)c1nn2ccccc2c1-c1ccc(N)cc1` [Compound 1101, 4-(2-Isopropyl-pyrazolo[1,5-a]pyridin-3-yl)-phenylamine] was tested, and the “Mechanical Allodynia ΔWT (change from pre-dosing 50% withdrawal threshold)” value ([1]; 10 mg/kg IP) was 0.02 grams.

For `CC(C)c1nn2ccccc2c1/C=N/NC(N)=O` [Compound 1074, (E)-2-((2-isopropylpyrazolo[1,5-a]pyridin-3-yl)methylene)hydrazinecarboxamide], the “Mechanical Allodynia ΔWT (change from pre-dosing 50% withdrawal threshold)” value ([1]; 10 mg/kg IP) was 3.64 grams and the “Observation noted beside the allodynia value” ([1]; 10 mg/kg IP) was “lethargy”.

For `CC(O)C(=O)c1c(C(C)C)nn2ccccc12` (stereo not drawn) [Compound 1068, 2-hydroxy-1-(2-isopropylpyrazolo[1,5-a]pyridin-3-yl)propan-1-one], the “Mechanical Allodynia ΔWT (change from pre-dosing 50% withdrawal threshold)” value ([1]; 10 mg/kg IP) was 0.7 grams.

`CC(C)C(=NOC(N)=O)c1c(-c2ccc(F)cc2)nn2ccccc12` [Compound 1020, 1-(2-(4-fluorophenyl)pyrazolo[1,5-a]pyridin-3-yl)-2-methylpropan-1-one O-carbamoyl oxime] was tested, and the IC50 [2] was > 200 µM.

`CC(C)c1nn2ccccc2c1-c1cccnc1` [Compound 1111, 2-Isopropyl-3-pyridin-3-yl-pyrazolo[1,5-a]pyridine] was tested, and the “Mechanical Allodynia ΔWT (change from pre-dosing 50% withdrawal threshold)” value ([1]; 10 mg/kg IP) was 0 grams.

In the case of `CC(C)c1nn2ccccc2c1-c1ccnc(N)n1` [Compound 1139, 4-(2-Isopropyl-pyrazolo[1,5-a]pyridin-3-yl)-pyrimidin-2-ylamine], the “Mechanical Allodynia ΔWT (change from pre-dosing 50% withdrawal threshold)” value ([1]; 10 mg/kg IP) is reported as 0.21 grams.

With `CC(C)c1nn2ccccc2c1-c1cnn(C)c1` [Compound 1112, 2-Isopropyl-3-(1-methyl-1H-pyrazol-4-yl)-pyrazolo[1,5-a]pyridine] the “Mechanical Allodynia ΔWT (change from pre-dosing 50% withdrawal threshold)” value ([1]; 10 mg/kg IP) was 0 grams.

For `COCC(N)C(=O)c1c(C(C)C)nn2ccccc12` (stereo not drawn) [Compound 1082, 2-amino-1-(2-isopropylpyrazolo[1,5-a]pyridin-3-yl)-3-methoxypropan-1-one], the “Mechanical Allodynia ΔWT (change from pre-dosing 50% withdrawal threshold)” value ([1]; 10 mg/kg IP) was 0.5 grams.

For `CC(C)c1nn2ccccc2c1-c1cn[nH]c1` [Compound 1104, 2-isopropyl-3-(1H-pyrazol-4-yl)-pyrazolo[1,5-a]pyridine], the “Mechanical Allodynia ΔWT (change from pre-dosing 50% withdrawal threshold)” value ([1]; 10 mg/kg IP) was 0.86 grams.

`CC(=O)SC(C)C(=O)c1c(C(C)C)nn2ccccc12` (stereo not drawn) [Compound 1081, S-1-(2-isopropylpyrazolo[1,5-a]pyridin-3-yl)-1-oxopropan-2-yl ethanethioate] was tested, and the “Mechanical Allodynia ΔWT (change from pre-dosing 50% withdrawal threshold)” value ([1]; 10 mg/kg IP) was 0.07 grams.

`CCCCC(N)C(=O)c1c(C(C)C)nn2ccccc12` (stereo not drawn) [Compound 1077, 2-amino-1-(2-isopropylpyrazolo[1,5-a]pyridin-3-yl)hexan-1-one] was tested, and the “Mechanical Allodynia ΔWT (change from pre-dosing 50% withdrawal threshold)” value ([1]; 10 mg/kg IP) was 0.41 grams.

`CC(C)CC(N)C(=O)c1c(C(C)C)nn2ccccc12` (stereo not drawn) [Compound 1061, 2-amino-1-(2-isopropylpyrazolo[1,5-a]pyridin-3-yl)-4-methylpentan-1-one] was tested, and the “Mechanical Allodynia ΔWT (change from pre-dosing 50% withdrawal threshold)” value ([1]; 10 mg/kg IP) was 0 grams.

For `COc1nn2ccccc2c1C(=O)C(C)N` (stereo not drawn) [Compound 1057, 2-amino-1-(2-methoxypyrazolo[1,5-a]pyridin-3-yl)propan-1-one], the “Mechanical Allodynia ΔWT (change from pre-dosing 50% withdrawal threshold)” value ([1]; 10 mg/kg IP) was 0.06 grams.

For `CC(C)c1nn2ccccc2c1-c1ccnc(NCCCO)n1` [Compound 1134, 3-[4-(2-Isopropyl-pyrazolo[1,5-a]pyridin-3-yl)-pyrimidin-2-ylamino]-propan-1-ol], the “Mechanical Allodynia ΔWT (change from pre-dosing 50% withdrawal threshold)” value ([1]; 10 mg/kg IP) was 0 grams.

For `CC(C)c1nn2ccccc2c1-c1ccncc1` [compound 1103, 2-Isopropyl-3-pyridin-4-yl-pyrazolo[1,5-a]pyridine], the “Mechanical Allodynia ΔWT (change from pre-dosing 50% withdrawal threshold)” value ([1]; 10 mg/kg IP) was 1.54 grams.

In the case of `COC(C)C(=O)c1c(C(C)C)nn2ccccc12` (stereo not drawn) [Compound 1069, 1-(2-isopropylpyrazolo[1,5-a]pyridin-3-yl)-2-methoxypropan-1-one], the “Mechanical Allodynia ΔWT (change from pre-dosing 50% withdrawal threshold)” value ([1]; 10 mg/kg IP) is reported as 0.13 grams.

For `CC(N)C(=O)c1c(N(C)C)nn2ccccc12` (stereo not drawn) [Compound 1075, 2-amino-1-(2-(dimethylamino)pyrazolo[1,5-a]pyridin-3-yl)propan-1-one], the “Mechanical Allodynia ΔWT (change from pre-dosing 50% withdrawal threshold)” value ([1]; 10 mg/kg IP) was 0.67 grams.

With `COc1nn2ccccc2c1C(=O)C(C)C` [Compound 1055, 1-(2-methoxypyrazolo[1,5-a]pyridin-3-yl)-2-methylpropan-1-one] the “Mechanical Allodynia ΔWT (change from pre-dosing 50% withdrawal threshold)” value ([1]; 10 mg/kg IP) was 10 mg/kg: 2.80 grams and the “Mechanical Allodynia ΔWT (change from pre-dosing 50% withdrawal threshold)” value ([1]; 20 mg/kg IP) was 20 mg/kg: 0 grams.

`CC(C)c1nn2ccccc2c1C(N)C(C)C` (stereo not drawn) [Compound 1051, 1-(2-isopropylpyrazolo[1,5-a]pyridin-3-yl)-2-methylpropan-1-amine hydrochloride] was tested, and the “Mechanical Allodynia ΔWT (change from pre-dosing 50% withdrawal threshold)” value ([1]; 10 mg/kg IP) was 0.29 grams.

For `CC(C)c1nn2ccccc2c1-c1cccc(N)c1` [Compound 1100, 3-(2-isopropyl-pyrazolo[1,5-a]pyridin-3-yl)-phenylamine], the “Mechanical Allodynia ΔWT (change from pre-dosing 50% withdrawal threshold)” value ([1]; 10 mg/kg IP) was 0 grams.

In the case of `C/C(=N/O)C(=O)c1c(C(C)C)nn2ccccc12` [Compound 1083, (Z)-2-(hydroxyimino)-1-(2-isopropylpyrazolo[1,5-a]pyridin-3-yl)propan-1-one], the “Mechanical Allodynia ΔWT (change from pre-dosing 50% withdrawal threshold)” value ([1]; 10 mg/kg IP) is reported as 0 grams.

For `CCC(=O)c1c(-c2ccc(F)cc2)nn2ccccc12` [Compound 1070, 1-(2-(4-fluorophenyl)pyrazolo[1,5-a]pyridin-3-yl)propan-1-one], the “Mechanical Allodynia ΔWT (change from pre-dosing 50% withdrawal threshold)” value ([1]; 10 mg/kg IP) was 0 grams.

For `CC(C)c1nn2ccccc2c1-c1cc[nH]n1` [Compound 1141, 2-isopropyl-3-(1H-pyrazol-3-yl)-pyrazolo[1,5-a]pyridine], the “Mechanical Allodynia ΔWT (change from pre-dosing 50% withdrawal threshold)” value ([1]; 10 mg/kg IP) was 1.04 grams.

In the case of `CC(C)c1nn2ccccc2c1-c1c[nH]c(=S)[nH]1` [compound 1085, 4-(2-isopropylpyrazolo[1,5-a]pyridin-3-yl)-1H-imidazole-2(3H)-thione], the “Mechanical Allodynia ΔWT (change from pre-dosing 50% withdrawal threshold)” value ([1]; 10 mg/kg IP) is reported as 1.93 grams.

`CC(C)C(=O)c1c(N(C)C)nn2ccccc12` [Compound 1072, 1-(2-(dimethylamino)pyrazolo[1,5-a]pyridin-3-yl)-2-methylpropan-1-one] was tested, and the “Mechanical Allodynia ΔWT (change from pre-dosing 50% withdrawal threshold)” value ([1]; 10 mg/kg IP) was 1.48 grams and the “Observation noted beside the allodynia value” ([1]; 10 mg/kg IP) was “lethargy”.

For `CC(C)c1nn2ccccc2c1-c1ccnc(NCCCN2CCN(C)CC2)n1` [Compound 1135, [4-(2-Isopropyl-pyrazolo[1,5-a]pyridin-3-yl)-pyrimidin-2-yl]-[3-(4-methyl-piperazin-1-yl)-propyl]-amine], the “Mechanical Allodynia ΔWT (change from pre-dosing 50% withdrawal threshold)” value ([1]; 10 mg/kg IP) was 0 grams.

In the case of `CC(C)c1nn2ccccc2c1-c1ccc(N2CCOCC2)cc1` [Compound 1102, 2-Isopropyl-3-(4-morpholin-4-yl-phenyl)-pyrazolo[1,5-a]pyridine], the “Mechanical Allodynia ΔWT (change from pre-dosing 50% withdrawal threshold)” value ([1]; 10 mg/kg IP) is reported as 0 grams.

For `CC(C)Nc1nccc(-c2c(C(C)C)nn3ccccc23)n1` [compound 1137, isopropyl-[4-(2-isopropylpyrazolo[1,5-a]pyridin-3-yl)-pyrimidin-2-yl]-amine], the “Mechanical Allodynia ΔWT (change from pre-dosing 50% withdrawal threshold)” value ([1]; 10 mg/kg IP) was 3.26 grams.

In the case of `CC(NCc1ccccc1)C(=O)c1c(C(C)C)nn2ccccc12` (stereo not drawn) [compound 1071, 2-(benzylamino)-1-(2-isopropylpyrazolo[1,5-a]pyridin-3-yl)propan-1-one], the “Mechanical Allodynia ΔWT (change from pre-dosing 50% withdrawal threshold)” value ([1]; 10 mg/kg IP) is reported as 0.57 grams.

`CCC(N)C(=O)c1c(C(C)C)nn2ccccc12` (stereo not drawn) [Compound 1060, 2-amino-1-(2-isopropylpyrazolo[1,5-a]pyridin-3-yl)butan-1-one] was tested, and the “Mechanical Allodynia ΔWT (change from pre-dosing 50% withdrawal threshold)” value ([1]; 10 mg/kg IP) was 10 mg/kg: 1.87 grams and the “Mechanical Allodynia ΔWT (change from pre-dosing 50% withdrawal threshold)” value ([1]; 20 mg/kg IP) was 20 mg/kg: 0.74 grams.

For `CC(=O)OC(C)C(=O)c1c(C(C)C)nn2ccccc12` (stereo not drawn) [Compound 1067, 1-(2-isopropylpyrazolo[1,5-a]pyridin-3-yl)-1-oxopropan-2-yl acetate], the “Mechanical Allodynia ΔWT (change from pre-dosing 50% withdrawal threshold)” value ([1]; 10 mg/kg IP) was 0.46 grams.

`CC(=O)c1c(C(C)C)nn2ccccc12` [Compound 1080, 1-(2-isopropylpyrazolo[1,5-a]pyridin-3-yl)ethanone] was tested, and the “Mechanical Allodynia ΔWT (change from pre-dosing 50% withdrawal threshold)” value ([1]; 10 mg/kg IP) was 1.14 grams.

With `CC(N)C(=O)c1c(-c2ccc(F)cc2)nn2ccccc12` (stereo not drawn) [Compound 1052, 2-amino-1-(2-(4-fluorophenyl)pyrazolo[1,5-a]pyridin-3-yl)propan-1-one hydrochloride] the “Mechanical Allodynia ΔWT (change from pre-dosing 50% withdrawal threshold)” value ([1]; 10 mg/kg IP) was 10 mg/kg: 0.39 grams and the “Mechanical Allodynia ΔWT (change from pre-dosing 50% withdrawal threshold)” value ([1]; 20 mg/kg IP) was 20 mg/kg: 0.31 grams.
